Experimental data: patent publication US20230330251A1, “METHODS FOR TREATING CANCERS WITH ANTIBODY DRUG CONJUGATES (ADC) THAT BIND TO 191P4D12 PROTEINS” (AGENSYS, INC., priority 2020, published 2023)

Tested on: patients with previously treated locally advanced or metastatic urothelial carcinoma (la/mUC) with poor prognostic factors
Test: EV-301 subgroup analyses of OS, PFS and ORR incl. hard-to-treat subgroups (age ≥65 years, liver metastasis, primary upper tract disease, CPI nonresponse)
Type: in vivo, human
Settings: for ORR, EV vs SC Absolute Difference / Overall response rate (ORR), % / Overall response rate (ORR), n/N: Response-Evaluable Population
Experimental: Using FAS, the analysis for OS, PFS1 and ORR were repeated by ECOG PS (0 vs 1), regions of the world, and liver metastasis respectively.
In addition, subgroup analyses were conducted for selected endpoints to determine whether the treatment effect is consistent.
Subgroup analyses were prespecified for the primary endpoint of OS and secondary endpoints of investigator-assessed progression-free survival (PFS) and overall response rate (ORR) per RECIST v1.1. Kaplan-Meier analyses compared OS and PFS between treatments for selected hard-to-treat subgroups as follows: age ≥65 years, presence of liver metastasis, primary upper tract disease, and checkpoint inhibitor (CPI) nonresponse. ORR and safety were also evaluated within subgroups. The Cox proportional hazards model was used to estimate hazard ratios. The Cochran-Mantel-Haenszel test was used to compare response and disease control rates between groups.

## enfortumab vedotin
Age ≥65 yrs
  Median OS: 14.32 mo
  Median PFS: 5.65 mo
  OS, EV vs SC HR: 0.745
  Overall survival (OS) Events, %: (44) %
  Overall survival (OS) Events, n/N: 85/193
  PFS, EV vs SC HR: 0.616
  Progression-free survival (PFS) Events, %: (65) %
  Progression-free survival (PFS) Events, n/N: 126/193
  ORR, EV vs SC Absolute Difference: 20.9%
  Overall response rate (ORR), %: 40.8%
  Overall response rate (ORR), n/N: 75/184
CPI non-responder
  Median OS: 11.63 mo
  Median PFS: 5.42 mo
  OS, EV vs SC HR: 0.757
  Overall survival (OS) Events, %: (48) %
  Overall survival (OS) Events, n/N: 100/207
  PFS, EV vs SC HR: 0.697
  Progression-free survival (PFS) Events, %: (71) %
  Progression-free survival (PFS) Events, n/N: 146/207
  ORR, EV vs SC Absolute Difference: 22.3%
  Overall response rate (ORR), %: 39.7%
  Overall response rate (ORR), n/N: 79/199
Presence of Liver metastasis
  Median OS: 9.63 mo
  Median PFS: 4.14 mo
  OS, EV vs SC HR: 0.660
  Overall survival (OS) Events, %: (57) %
  Overall survival (OS) Events, n/N: 53/93
  PFS, EV vs SC HR: 0.597
  Progression-free survival (PFS) Events, %: (76) %
  Progression-free survival (PFS) Events, n/N: 71/93
  ORR, EV vs SC Absolute Difference: 24.7%
  Overall response rate (ORR), %: 35.5%
  Overall response rate (ORR), n/N: 33/93
Primary upper tract disease
  Median OS: 12.62 mo
  Median PFS: 5.62 mo
  OS, EV vs SC HR: 0.848
  Overall survival (OS) Events, %: (45) %
  Overall survival (OS) Events, n/N: 44/98
  PFS, EV vs SC HR: 0.716
  Progression-free survival (PFS) Events, %: (64) %
  Progression-free survival (PFS) Events, n/N: 63/98
  ORR, EV vs SC Absolute Difference: 24.8%
  Overall response rate (ORR), %: 43.9%
  Overall response rate (ORR), n/N: 43/98
Across all subgroups
  ORR in hard-to-treat subgroups, EV compared to SC: higher
  PFS in hard-to-treat subgroups, EV compared to SC: longer
Liver metastasis, CPI nonresponsive, primary upper tract disease, poor prognostic factors, listed as EV
  OS in hard-to-treat subgroups, EV vs SC: consistently longer
Prespecified key subgroups, intention-to-treat population
  progression-free survival benefit in subgroup analyses: present across multiple subgroups
